Reference: US9745320B2, “Five-and-six-membered heterocyclic compound, and preparation method, pharmaceutical composition and use thereof” (SHANGHAI CHEMEXPLORER CO., LTD., priority 2013, dated 2017)

How the values were obtained:
Assay type in all cases: biochemical
JAK1 = JAK1 (Homo sapiens, UniProt P23458); experiment: JAK 1 enzymatic inhibitory activity IC50 assay (Caliper conversion rate); details: Km ATP, 28° C., 1 hour
Procedure: (§1) Biological effect: intracytoplasmic JAK 1,2,3 enzymatic inhibitory activity IC50 assay
(§2) JAK1 buffer solution: 25 mM HEPES, pH 7.5, 0.01% Brij-35, 0.01 M Triton. JAK2,3 buffer solution: 50 mM HEPES, pH 7.5, 0.0015% Brij-35.
(§3) 2. Compound was formulated in 100% DMSO in a concentration gradient, deposited to a 384-well plate with a final concentration of 2% of DMSO.
(§4) 3. JAK2,3 enzymes were diluted to having an optimum concentration with the following buffer: 50 mM HEPES, pH 7.5, 0.0015% Brij-35, 2 mM DTT. JAK1 enzyme was diluted to having an optimum concentration with the following buffer: 25 mM HEPES, pH 7.5, 0.01% Brij-35, 2 mM DTT, 0.01M Triton. Then they were transferred to a 384-well plate and incubated with the compound for a certain time.
(§5) 4. JAK2,3 substrate was diluted to having an optimum concentration with the following buffer: 50 mM HEPES, pH 7.5, 0.0015% Brij-35, 10 mM MgCl2, Km adenosine triphosphate. JAK1 substrate was diluted to having an optimum concentration with the following buffer: 25 mM HEPES, pH 7.5, 0.01% Brij-35, 10 mM MgCl2, 0.01 M Triton. Km adenosine triphosphate was added into 384-well plates to initiate reactions, and the reaction were carried out at 28° C. for 1 hour.
(§6) 5. Read the conversion rate by Caliper Reader, and the inhibition rate are calculated according to the average of two tests.

JAK2 = JAK2 (Homo sapiens, UniProt O60674); experiment: JAK 2 enzymatic inhibitory activity IC50 assay (Caliper conversion rate); details: Km ATP, 28° C., 1 hour
Procedure: as §1, §2, §3, §4, §5, §6

JAK3 = molecular target: T1, JAK3 (Homo sapiens, UniProt P52333); experiment: JAK 3 enzymatic inhibitory activity IC50 assay (Caliper conversion rate); details: Km ATP, 28° C., 1 hour; read-out: JAK 3 enzymatic inhibitory activity IC50
T1 sequence (P52333 1-1124): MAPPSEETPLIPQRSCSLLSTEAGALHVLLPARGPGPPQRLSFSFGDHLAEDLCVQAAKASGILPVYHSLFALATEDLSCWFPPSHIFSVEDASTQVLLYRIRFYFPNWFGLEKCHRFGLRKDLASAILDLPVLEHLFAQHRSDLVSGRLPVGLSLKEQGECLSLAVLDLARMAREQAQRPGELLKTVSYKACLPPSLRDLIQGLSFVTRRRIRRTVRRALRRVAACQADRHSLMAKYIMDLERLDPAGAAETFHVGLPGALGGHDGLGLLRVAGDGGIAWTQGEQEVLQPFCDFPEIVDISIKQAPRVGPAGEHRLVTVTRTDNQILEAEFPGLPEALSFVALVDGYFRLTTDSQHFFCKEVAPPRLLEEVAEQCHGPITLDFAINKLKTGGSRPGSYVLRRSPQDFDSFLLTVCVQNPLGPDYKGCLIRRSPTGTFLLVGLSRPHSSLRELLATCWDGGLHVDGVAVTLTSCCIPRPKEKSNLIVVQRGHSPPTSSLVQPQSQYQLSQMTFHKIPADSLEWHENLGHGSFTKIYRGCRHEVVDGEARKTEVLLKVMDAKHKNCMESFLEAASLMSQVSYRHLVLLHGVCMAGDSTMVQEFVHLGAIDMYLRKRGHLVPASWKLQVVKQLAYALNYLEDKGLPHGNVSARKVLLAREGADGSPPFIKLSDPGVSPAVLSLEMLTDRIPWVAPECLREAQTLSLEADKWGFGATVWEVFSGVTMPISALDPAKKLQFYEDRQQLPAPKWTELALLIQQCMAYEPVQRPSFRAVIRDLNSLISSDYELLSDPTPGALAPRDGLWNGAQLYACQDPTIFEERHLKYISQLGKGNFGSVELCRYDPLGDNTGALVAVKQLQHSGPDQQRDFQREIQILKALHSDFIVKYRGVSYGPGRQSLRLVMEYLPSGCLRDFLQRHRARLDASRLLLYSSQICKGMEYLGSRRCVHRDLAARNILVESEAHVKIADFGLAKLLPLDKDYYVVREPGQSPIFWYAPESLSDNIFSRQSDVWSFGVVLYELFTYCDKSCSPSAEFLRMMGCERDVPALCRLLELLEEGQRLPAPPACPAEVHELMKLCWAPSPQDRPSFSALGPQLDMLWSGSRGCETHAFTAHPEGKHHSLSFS
Procedure: as §1, §2, §3
as §4, with “time. […]” for “time.”
as §6

JAK1, sequence (P23458 whole entry, species assumed): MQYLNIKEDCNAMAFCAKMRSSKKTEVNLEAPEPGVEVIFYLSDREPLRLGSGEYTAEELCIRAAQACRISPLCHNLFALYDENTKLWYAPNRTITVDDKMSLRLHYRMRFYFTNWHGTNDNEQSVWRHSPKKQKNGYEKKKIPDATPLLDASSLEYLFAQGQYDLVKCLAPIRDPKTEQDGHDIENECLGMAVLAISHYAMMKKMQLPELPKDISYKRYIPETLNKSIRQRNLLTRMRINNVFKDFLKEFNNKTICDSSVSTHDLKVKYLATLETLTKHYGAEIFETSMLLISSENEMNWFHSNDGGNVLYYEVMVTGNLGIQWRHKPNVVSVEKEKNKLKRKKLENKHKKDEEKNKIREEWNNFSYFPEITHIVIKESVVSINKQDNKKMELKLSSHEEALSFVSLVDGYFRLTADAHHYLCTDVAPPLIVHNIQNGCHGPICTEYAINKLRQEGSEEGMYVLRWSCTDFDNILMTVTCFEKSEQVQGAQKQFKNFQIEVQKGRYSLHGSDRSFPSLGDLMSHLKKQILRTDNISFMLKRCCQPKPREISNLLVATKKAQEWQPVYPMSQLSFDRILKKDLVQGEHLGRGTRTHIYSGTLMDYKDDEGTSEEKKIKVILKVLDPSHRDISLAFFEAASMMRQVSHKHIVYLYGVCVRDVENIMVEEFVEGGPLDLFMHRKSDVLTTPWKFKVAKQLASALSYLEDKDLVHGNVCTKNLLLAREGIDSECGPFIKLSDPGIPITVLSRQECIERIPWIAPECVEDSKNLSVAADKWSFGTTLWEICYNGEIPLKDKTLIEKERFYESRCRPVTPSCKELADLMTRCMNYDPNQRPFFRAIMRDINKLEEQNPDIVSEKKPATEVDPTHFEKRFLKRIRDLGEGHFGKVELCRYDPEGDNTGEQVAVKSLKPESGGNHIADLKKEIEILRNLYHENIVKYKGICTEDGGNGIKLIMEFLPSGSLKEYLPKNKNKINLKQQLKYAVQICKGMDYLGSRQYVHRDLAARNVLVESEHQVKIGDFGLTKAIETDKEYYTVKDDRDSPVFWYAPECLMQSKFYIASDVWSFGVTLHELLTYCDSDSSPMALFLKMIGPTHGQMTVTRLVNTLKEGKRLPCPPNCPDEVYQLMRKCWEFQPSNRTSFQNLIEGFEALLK
JAK2, sequence (O60674 whole entry, species assumed): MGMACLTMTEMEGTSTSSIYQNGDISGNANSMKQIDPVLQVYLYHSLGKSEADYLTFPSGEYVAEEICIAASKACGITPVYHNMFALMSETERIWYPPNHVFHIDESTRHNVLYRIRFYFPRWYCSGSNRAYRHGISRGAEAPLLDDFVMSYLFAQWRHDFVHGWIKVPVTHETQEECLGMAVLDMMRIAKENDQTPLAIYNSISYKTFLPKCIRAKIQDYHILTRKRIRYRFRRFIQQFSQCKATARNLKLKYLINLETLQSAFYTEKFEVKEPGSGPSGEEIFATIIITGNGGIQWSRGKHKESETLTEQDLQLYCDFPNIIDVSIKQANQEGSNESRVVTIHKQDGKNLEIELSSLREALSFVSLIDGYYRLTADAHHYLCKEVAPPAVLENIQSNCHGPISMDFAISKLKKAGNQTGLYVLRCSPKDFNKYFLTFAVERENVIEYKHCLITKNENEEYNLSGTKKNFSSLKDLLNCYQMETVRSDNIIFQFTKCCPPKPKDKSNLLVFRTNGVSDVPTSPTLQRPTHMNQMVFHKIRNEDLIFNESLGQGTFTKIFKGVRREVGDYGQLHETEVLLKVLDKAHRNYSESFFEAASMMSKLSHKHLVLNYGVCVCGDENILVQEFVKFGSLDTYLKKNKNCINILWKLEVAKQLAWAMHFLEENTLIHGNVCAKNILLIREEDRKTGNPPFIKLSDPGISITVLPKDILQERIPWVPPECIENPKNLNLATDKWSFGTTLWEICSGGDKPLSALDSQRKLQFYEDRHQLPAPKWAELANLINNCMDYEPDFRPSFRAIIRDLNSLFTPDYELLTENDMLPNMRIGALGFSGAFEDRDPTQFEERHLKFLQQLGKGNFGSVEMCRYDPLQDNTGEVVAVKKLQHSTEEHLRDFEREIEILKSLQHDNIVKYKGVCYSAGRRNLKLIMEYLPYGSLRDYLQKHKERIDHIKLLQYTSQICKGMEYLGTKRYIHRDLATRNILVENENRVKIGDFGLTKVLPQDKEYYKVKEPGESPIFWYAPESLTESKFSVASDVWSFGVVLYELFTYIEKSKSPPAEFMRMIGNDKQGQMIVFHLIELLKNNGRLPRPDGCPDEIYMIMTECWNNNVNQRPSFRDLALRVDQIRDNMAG

## CCS(=O)(=O)N1CC(CC#N)(n2cc(-c3nc(Nc4cnn(C5CCOCC5)c4)nc4ccsc34)cn2)C1 [Compound T-38, 2-(1-(Ethylsulfonyl)-3-(4-(2-((1-(tetrahydro-2H-pyran-4-yl)-1H-pyrazol-4-yl)amino)thieno[3,2-d]pyrimidin-4-yl)-1H-pyrazol-1-yl)azetidin-3-yl)acetonitrile]
JAK1
  IC50: < 50 nM
JAK2
  IC50: < 50 nM
JAK3
  IC50: < 50 nM

## CCS(=O)(=O)N1CC(CC#N)(n2cc(-c3nc(Nc4cnn(C5COC5)c4)nc4ccsc34)cn2)C1 [Compound T-39, 2-(1-(Ethylsulfonyl)-3-(4-(2-((1-(oxetan-3-yl)-1H-pyrazol-4-yl)amino)thieno[3,2-d]pyrimidin-4-yl)-1H-pyrazol-1-yl)azetidin-3-yl)acetonitrile]
JAK1
  IC50: 50 to 500 nM
JAK2
  IC50: < 50 nM
JAK3
  IC50: < 50 nM

## CCn1cc(Nc2nc(-c3cnn(C4(CC#N)CN(S(=O)(=O)CC)C4)c3)c3sccc3n2)cn1 [Compound T-40, 2-(3-(4-(2-((1-Ethyl-1H-pyrazol-4-yl)amino)thieno[3,2-d]pyrimidin-4-yl)-1H-pyrazol-1-yl)-1-(ethylsulfonyl)azetidin-3-yl)acetonitrile]
JAK1
  IC50: < 50 nM
JAK2
  IC50: < 50 nM
JAK3
  IC50: < 50 nM

## CCS(=O)(=O)N1CC(CC#N)(n2cc(-c3nc(Nc4cnn(C(C)C)c4)nc4ccsc34)cn2)C1 [Compound T-41, 2-(1-(Ethylsulfonyl)-3-(4-(2-((1-isopropyl-1H-pyrazol-4-yl)amino)thieno[3,2-d]pyrimidin-4-yl)-1H-pyrazol-1-yl)azetidin-3-yl)acetonitrile]
JAK1
  IC50: < 50 nM
JAK2
  IC50: < 50 nM
JAK3
  IC50: < 50 nM

## Cn1cc(Nc2nc(-c3cnn(C4(CC#N)COC4)c3)c3ccsc3n2)cn1 [Compound T-42, 2-(3-(4-(2-((1-Methyl-1H-pyrazol-4-yl)amino)thieno[2,3-d]pyrimidin-4-yl)-1H-pyrazol-1-yl)oxetan-3-yl)acetonitrile]
JAK1
  IC50: 500 to 1000 nM
JAK2
  IC50: 50 to 500 nM
JAK3
  IC50: > 1000 nM

## Cn1cc(Nc2nc(-c3cnn(C4(CC#N)COC4)c3)c3sccc3n2)cn1 [Compound T-43, 2-(3-(4-(2-((1-Methyl-1H-pyrazol-4-yl)amino)thieno[3,2-d]pyrimidin-4-yl)-1H-pyrazol-1-yl)oxetan-3-yl)acetonitrile]
JAK1
  IC50: 50 to 500 nM
JAK2
  IC50: < 50 nM
JAK3
  IC50: 50 to 500 nM

## Cn1cc(Nc2nc(-c3cnn(C4(CC#N)CCOCC4)c3)c3sccc3n2)cn1 [Compound T-44, 2-(4-(4-(2-((1-Methyl-1H-pyrazol-4-yl)amino)thieno[3,2-d]pyrimidin-4-yl)-1H-pyrazol-1-yl)tetrahydro-2H-pyran-4-yl)acetonitrile]
JAK1
  IC50: 50 to 500 nM
JAK2
  IC50: < 50 nM
JAK3
  IC50: 50 to 500 nM

## CCS(=O)(=O)N1CC(CC#N)(n2cc(-c3nc(Nc4ccc(-c5nn[nH]n5)cc4)nc4ccsc34)cn2)C1 [Compound T-45, 2-(3-(4-(2-((4-(2H-Tetrazol-5-yl)phenyl)amino)thieno[3,2-d]pyrimidin-4-yl)-1H-pyrazol-1-yl)-1-(ethylsulfonyl)azetidin-3-yl)acetonitrile]
JAK1
  IC50: < 50 nM
JAK2
  IC50: < 50 nM
JAK3
  IC50: 50 to 500 nM

## CCC(=O)N1CC(CC#N)(n2cc(-c3nc(Nc4cnn(C)c4)nc4ccsc34)cn2)C1 [Compound T-46, 2-(3-(4-(2-((1-Methyl-1H-pyrazol-4-yl)amino)thieno[3,2-d]pyrimidin-4-yl)-1H-pyrazol-1-yl)-1-propionylazetidin-3-yl)acetonitrile]
JAK1
  IC50: 50 to 500 nM
JAK2
  IC50: < 50 nM
JAK3
  IC50: 500 to 1000 nM

## CCS(=O)(=O)N1CC(CC#N)(n2cc(-c3nc(Nc4ccnnc4)nc4ccsc34)cn2)C1 [Compound T-47, 2-(1-(Ethylsulfonyl)-3-(4-(2-(pyridazin-4-ylamino)thieno[3,2-d]pyrimidin-4-yl)-1H-pyrazol-1-yl)azetidin-3-yl)acetonitrile]
JAK1
  IC50: 500 to 1000 nM
JAK2
  IC50: 500 to 1000 nM
JAK3
  IC50: > 1000 nM

## CCS(=O)(=O)N1CC(CC#N)(n2cc(-c3nc(Nc4cn(C)cn4)nc4ccsc34)cn2)C1 [Compound T-48, 2-(1-(Ethylsulfonyl)-3-(4-(2-((1-methyl-1H-imidazol-4-yl)amino)thieno[3,2-d]pyrimidin-4-yl)-1H-pyrazol-1-yl)azetidin-3-yl)acetonitrile]
JAK1
  IC50: > 1000 nM
JAK2
  IC50: 50 to 500 nM
JAK3
  IC50: > 1000 nM

## Cn1cc(Nc2nc(-c3cnn(C4(CC#N)CN(C(=O)CO)C4)c3)c3sccc3n2)cn1 [Compound T-49, 2-(1-(2-Hydroxyacetyl)-3-(4-(2-((1-methyl-1H-pyrazol-4-yl)amino)thieno[3,2-d]pyrimidin-4-yl)-1H-pyrazol-1-yl)azetidin-3-yl)acetonitrile]
JAK1
  IC50: 500 to 1000 nM
JAK2
  IC50: < 50 nM
JAK3
  IC50: 500 to 1000 nM

## N#CCC1(n2cc(-c3nc(Nc4cnn(CCN5CCOCC5)c4)nc4ccsc34)cn2)CCOCC1 [Compound T-50, 2-(4-(4-(2-((1-(2-Morpholinoethyl)-1H-pyrazol-4-yl)amino)thieno[3,2-d]pyrimidin-4-yl)-1H-pyrazol-1-yl)tetrahydro-2H-pyran-4-yl)acetonitrile]
JAK1
  IC50: 500 to 1000 nM
JAK2
  IC50: < 50 nM
JAK3
  IC50: 500 to 1000 nM

## CCS(=O)(=O)N1CC(CC#N)(n2cc(-c3nc(Nc4cnn(CCO)c4)nc4ccsc34)cn2)C1 [Compound T-51, 2-(1-(Ethylsulfonyl)-3-(4-(2-((1-(2-hydroxyethyl)-1H-pyrazol-4-yl)amino)thieno[3,2-d]pyrimidin-4-yl)-1H-pyrazol-1-yl)azetidin-3-yl)acetonitrile]
JAK1
  IC50: < 50 nM
JAK2
  IC50: < 50 nM
JAK3
  IC50: < 50 nM

## CCS(=O)(=O)N1CC(CC#N)(n2cc(-c3nc(Nc4cnn(C(C)=O)c4)nc4ccsc34)cn2)C1 [Compound T-52, 2-(3-(4-(2-((1-Acetyl-1H-pyrazol-4-yl)amino)thieno[3,2-d]pyrimidin-4-yl)-1H-pyrazol-1-yl)-1-(ethylsulfonyl)azetidin-3-yl)acetonitrile]
JAK1
  IC50: < 50 nM
JAK2
  IC50: < 50 nM
JAK3
  IC50: 50 to 500 nM

## CCS(=O)(=O)N1CC(CC#N)(n2cc(-c3nc(Nc4cnn(CCN5CCOCC5)c4)nc4ccsc34)cn2)C1 [Compound T-53, 2-(1-(Ethylsulfonyl)-3-(4-(2-((1-(2-morpholinoethyl)-1H-pyrazol-4-yl)amino)thieno[3,2-d]pyrimidin-4-yl)-1H-pyrazol-1-yl)azetidin-3-yl)acetonitrile]
JAK1
  IC50: 50 to 500 nM
JAK2
  IC50: < 50 nM
JAK3
  IC50: < 50 nM

## CCS(=O)(=O)N1CC(CC#N)(n2cc(-c3nc(Nc4cnn(C5CN(C)C5)c4)nc4ccsc34)cn2)C1 [Compound T-54, 2-(1-(Ethylsulfonyl)-3-(4-(2-((1-(1-methylazetidin-3-yl)-1H-pyrazol-4-yl)amino)thieno[3,2-d]pyrimidin-4-yl)-1H-pyrazol-1-yl)azetidin-3-yl)acetonitrile]
JAK1
  IC50: 50 to 500 nM
JAK2
  IC50: < 50 nM
JAK3
  IC50: 50 to 500 nM
